What was measured:
[1] = target: T1, human 5-HT transporters (SERT) (Homo sapiens, UniProt P31645); assay: Affinity to CHO cells-transfected human-derived 5-HT transporter ([3H]imipramine binding); conditions: 2 nM [3H]imipramine, CHO cell membrane homogenate, 22°C, 60 min
T1 construct: expressed in transfected cells; host or cells: CHO cells (membrane homogenate)
Description: To a mixed system of cell membrane homogenate protein (12 μg), 2 nM of [^3H] imipramine and buffer solution (50 mM of Tris-HCl (pH 7.4), 120 mM of NaCl, 0.5 mM of KCl and 0.1% BSA) was added or not added the test compound at 22° C., and then the resulting mixture was incubated for 60 minutes.
To the mixed system mentioned above was added 10 μM of imipramine for measuring nonspecific binding values.
After incubation, the samples were filtered rapidly in vacuo with a 96-sample cell harvester (Unifilter, Packard) through glass-fiber filters (GF/B, Packard) pre-soaked with 0.3% PEI and rinsed several times with an ice-cold 50 mM of Tris-HCl and 150 mM of NaCl. The filters were dried and the retained radioactivity was measured by means of a scintillation counter (Topcount, Packard) using a scintillation cocktail (Microscint O, Packard). Each experimental result was expressed as a percentage inhibition of radioactive ligand specific binding relative to control groups.
The standard reference compound was imipramine, and ICso values were calculated by the competitive curve obtained from a series of concentrations of the experimental test. The experimental results of the affinity of the compounds disclosed herein to human 5-HT transporters (SERT) were listed in Table A.

5-HT1A receptors = target: T2, 5-HT1A receptors (Homo sapiens, UniProt P08908); assay: h5-HT1A binding affinity test ([3H]8-OH-DPAT, HEK-293 cell homogenates); conditions: 0.3 nM [3H]8-OH-DPAT, 22°C, 60 min, Ki from IC50 by ChengPrusoff equation
T2 construct: host or cells: human HEK-293 cell homogenates
T2 sequence (P08908 1-422): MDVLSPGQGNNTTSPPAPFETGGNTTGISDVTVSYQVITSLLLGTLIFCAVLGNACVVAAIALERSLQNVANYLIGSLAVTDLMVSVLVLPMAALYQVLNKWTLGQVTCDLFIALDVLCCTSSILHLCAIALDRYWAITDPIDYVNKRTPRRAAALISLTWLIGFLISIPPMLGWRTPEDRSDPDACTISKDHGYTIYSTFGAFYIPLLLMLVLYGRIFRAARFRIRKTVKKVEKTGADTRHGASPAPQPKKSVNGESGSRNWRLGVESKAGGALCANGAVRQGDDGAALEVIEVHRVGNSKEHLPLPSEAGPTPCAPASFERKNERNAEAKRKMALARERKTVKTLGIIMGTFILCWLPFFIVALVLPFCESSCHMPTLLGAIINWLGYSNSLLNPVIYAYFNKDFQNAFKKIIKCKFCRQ
Description: Human HEK-293 cell homogenates (36 μg of protein) were incubated at 22° C. for 60 minutes with 0.3 nM of [^3H]8-OH-DPAT (Perkin-Elmer) in the absence or presence of the test compound in a buffer solution containing 50 mM of Tris-HCl (pH 7.4), 10 mM of MgSO4, 0.5 mM of EDTA and 2 μg/mL aprotinine.
The non-specific binding value was determined by incubating the same mixture in the presence of 10 μM of 8-OH-DPAT, which was used as the standard reference compound. Competitive curve was obtained by testing data of 8-OH-DPAT in each experiment at several concentrations.
The incubated samples were filtered fastly using a 96-sample cell harvester (Unifilter, Packard) through fiberglass filter membranes (GF/B, Packard) pre-soaked with 0.3% PEI in vacuo, and washed several times with an ice cold 50 mM of Tris-HCl. The filter membranes were dried and the retained radioactivity was measured in a scintillation counter (Topcount, Packard) using a scintillation cocktail (Microscint 0, Packard). The experimental results were expressed as inhibition percentage of radioactive ligand specific binding relative to control groups.
The experiments of combining [^3H]8-OH-DPAT (0.3 nM) with 5-HT1A receptors of human HEK-293 cells were accomplished by using Scintillation Proximity Assay on membrane. The test compounds were required to be tested at least three times in the case of a concentration of more than 6 log, and the data were analyzed by the method of nonlinear regression using Hill equation curve to obtain an IC50 value, and then the IC50 value was calculated by ChengPrusoff equation to obtain a Ki value.

[2] = Pharmacokinetic evaluation in rats after intravenous or gavage administration; type: in vivo, SD rats; conditions: for AUC(0-inf) / AUC(0-t) / Cmax / Tmax / clearance / half-life / Vd: SD, rat, plasma; for Vd: read-out: Vss
Description: The pharmacokinetic evaluation of the compound disclosed herein in rats, dogs and monkeys was carried out in this invention, and animal information as described in Table 1.
The compounds disclosed herein were administered in form of a saline solution containing 5% DMSO, 5% Kolliphor HS 15, 2% (2% HCl) and 88% Saline, or a physiological saline solution containing 10% DMSO, 10% Kolliphor HS 15 and 80% physiological saline to an animal subject. The animals of the intravenous administration group were administered at a dose of 1 mg/kg, and 0.3 mL of vein blood samples were collected at the time points of 0, 0.083, 0.25, 0.5, 1.0, 2.0, 5.0, 7.0 and 24 h after drug administration, then each blood sample was processed to separate plasma by centrifugation at 3000 rpm or 4000 rpm for 10 minutes, and the plasma samples were collected and stored at −20° C. or −70° C. The animals of the gavage administration group were administered at a dose of 2.5 mg/kg, and 0.3 mL of vein blood samples were collected at the time points of 0, 0.083, 0.25, 0.5, 1.0, 2.0, 5.0, 7.0 and 24 h after drug administration, then each blood sample was processed to separate plasma by centrifugation at 3000 rpm or 4000 rpm for 10 minutes, and the plasma samples were collected and stored at −20° C. or −70° C.
The above plasma was analyzed by the LC/MS/MS system.
The LC/MS/MS system for the analysis comprises an Agilent 1200 Series Vacuum Degasser, binary syringe pumps, a well-plate autosampler, a column oven and an Agilent G6430A Triple Quadrupole Mass Spectrometer equiped with an electrospray ionization (ESI) source.
Analysis was performed on waters XBridge C18 (2.1×50 mm, […] column, and 5 μL of sample was injected). Conditions of the analysis comprise: a mobile phase consisting of mobile phase A (water, 2 mM ammonium formate and 0.1% formic acid) and mobile phase B (methanol, 2 mM ammonium formate and 0.1% formic acid). A flow rate of 0.4 mL/min.

T1 sequence (P31645 whole entry): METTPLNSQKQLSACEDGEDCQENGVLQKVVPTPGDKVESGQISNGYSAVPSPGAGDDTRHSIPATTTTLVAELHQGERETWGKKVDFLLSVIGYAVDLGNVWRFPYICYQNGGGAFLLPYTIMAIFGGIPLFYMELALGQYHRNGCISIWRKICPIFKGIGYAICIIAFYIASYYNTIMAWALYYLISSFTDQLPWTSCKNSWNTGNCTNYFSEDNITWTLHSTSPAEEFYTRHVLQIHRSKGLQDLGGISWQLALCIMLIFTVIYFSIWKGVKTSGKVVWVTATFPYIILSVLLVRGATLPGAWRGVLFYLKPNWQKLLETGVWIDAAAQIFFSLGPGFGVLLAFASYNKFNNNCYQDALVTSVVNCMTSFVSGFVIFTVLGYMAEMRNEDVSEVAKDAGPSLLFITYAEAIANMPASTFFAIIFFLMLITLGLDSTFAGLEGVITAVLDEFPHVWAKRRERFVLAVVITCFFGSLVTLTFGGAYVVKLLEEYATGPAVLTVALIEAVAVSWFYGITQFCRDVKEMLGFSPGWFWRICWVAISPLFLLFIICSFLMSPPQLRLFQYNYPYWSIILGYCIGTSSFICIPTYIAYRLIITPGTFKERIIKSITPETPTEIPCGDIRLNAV

Row | AUC(0-inf) ([2]; iv, 1 mg/kg) [ng·h/mL] | AUC(0-t) ([2]; iv, 1 mg/kg) [ng·h/mL] | Cmax ([2]; iv, 1 mg/kg) [ng/mL] | Tmax ([2]; iv, 1 mg/kg) [h] | clearance ([2]; iv, 1 mg/kg) [mL/min/kg] | half-life ([2]; iv, 1 mg/kg) [h] | Vd ([2]; iv, 1 mg/kg) [L/kg] | AUC(0-inf) ([2]; po, 2.5 mg/kg) [ng·h/mL] | AUC(0-t) ([2]; po, 2.5 mg/kg) [ng·h/mL] | Cmax ([2]; po, 2.5 mg/kg) [ng/mL] | Tmax ([2]; po, 2.5 mg/kg) [h] | half-life ([2]; po, 2.5 mg/kg) [h] | F ([2]; po, 2.5 mg/kg) [%] | Compound | IC50 [1] [nM] | Ki (5-HT1A receptors) [nM]
1 | 1500 | 1340 | 193 | 0.25 | 11.6 | 7.53 | 6.41 | 3130 | 2790 | 180 | 5 | 7.28 | 83.28 | N#Cc1ccc2[nH]cc(CCCN3CCN(c4ncc(-c5ccc(F)cc5F)cn4)CC3)c2c1 [Example 14, 3-(3-(4-(5-(2,4-difluorophenyl)pyrimidin-2-yl)piperazin-1-yl)propyl)-1H-indole-5-carbonitrile] | 0.58 | 0.92
2 | 2240 | 1870 | 444 | 0.083 | 7.5 | 9.52 | 5.46 | – | 2950 | 207 | 5.67 | – | 52.62 | N#Cc1ccc2[nH]cc(CCCN3CCN(c4ncc(-c5ccc(Cl)cc5)cn4)CC3)c2c1 [Example 12, 3-(3-(4-(5-(4-chlorophenyl)pyrimidin-2-yl)piperazin-1-yl)propyl)-1H-indole-5-carbonitrile] | 0.32 | 5.5
3 | 1250 | 1180 | 195 | 0.139 | 13.4 | 5.85 | 6.01 | 2070 | 2140 | 180 | 4 | 4.85 | 68.48 | N#Cc1ccc2[nH]cc(CCCN3CCN(c4ncc(-c5ccc(F)cc5)cn4)CC3)c2c1 [Example 8, 3-(3-(4-(5-(4-fluorophenyl)pyrimidin-2-yl)piperazin-1-yl)propyl)-1H-indole-5-carbonitrile] | 1.3 | 1.9
4 | 753 | 722 | 409 | 0.083 | 22.9 | 1.59 | 2.33 | 767 | 706 | 241 | 0.833 | 1.95 | 39.2 | N#Cc1ccc2[nH]cc(CCCN3CCN(c4ncc(-c5cccc(C(N)=O)c5)cn4)CC3)c2c1 [Example 2, 3-(2-(4-(3-(5-cyano-1H-indol-3-yl)propyl)piperazin-1-yl)pyrimidin-5-yl) benzamide] | 0.35 | 1.21

The remaining lines, values behind:

Row | Compound | AUC(0-inf) ([2]; iv, 1 mg/kg) [ng·h/mL] | AUC(0-t) ([2]; iv, 1 mg/kg) [ng·h/mL] | Cmax ([2]; iv, 1 mg/kg) [ng/mL] | Tmax ([2]; iv, 1 mg/kg) [h] | clearance ([2]; iv, 1 mg/kg) [mL/min/kg] | half-life ([2]; iv, 1 mg/kg) [h] | Vd ([2]; iv, 1 mg/kg) [L/kg] | AUC(0-inf) ([2]; po, 2.5 mg/kg) [ng·h/mL] | AUC(0-t) ([2]; po, 2.5 mg/kg) [ng·h/mL] | Cmax ([2]; po, 2.5 mg/kg) [ng/mL] | Tmax ([2]; po, 2.5 mg/kg) [h] | half-life ([2]; po, 2.5 mg/kg) [h] | F ([2]; po, 2.5 mg/kg) [%] | IC50 [1] [nM] | Ki (5-HT1A receptors) [nM]
5 | N#Cc1ccc2[nH]cc(CCCCN3CCN(c4ncc(-c5ccc(F)cc5)cn4)CC3)c2c1 [Example 7, 3-(4-(4-(5-(4-fluorophenyl)pyrimidin-2-yl)piperazin-1-yl)butyl)-1H-indole-5-carbonitrile] | 1030 | 1010 | 299 | 0.139 | 16.7 | 4.64 | 5.03 | 2010 | 1960 | 194 | 2.67 | 4.37 | 78.1 | 0.88 | 3.7
6 | COc1ccccc1-c1cnc(N2CCN(CCCCc3c[nH]c4ccc(C#N)cc34)CC2)nc1 [Example 9, 3-(4-(4-(5-(2-methoxyphenyl)pyrimidin-2-yl)piperazin-1-yl)butyl)-1H-indole-5-carbonitrile] | – | – | – | – | – | – | – | – | – | – | – | – | – | 1 | 2.7
7 | N#Cc1ccc2[nH]cc(CCCN3CCN(c4ncc(-c5ccc(C(N)=O)cc5)cn4)CC3)c2c1 [Example 6, 4-(2-(4-(3-(5-cyano-1H-indol-3-yl)propyl)piperazin-1-yl)pyrimidin-5-yl) benzamide] | – | – | – | – | – | – | – | – | – | – | – | – | – | 0.93 | 4.13
8 | COc1cc(F)ccc1-c1cnc(N2CCN(CCCCc3c[nH]c4ccc(C#N)cc34)CC2)nc1 [Example 15, 3-(4-(4-(5-(4-fluoro-2-methoxyphenyl)pyrimidin-2-yl)piperazin-1-yl)butyl)-1H-indole-5-carbonitrile] | – | – | – | – | – | – | – | – | – | – | – | – | – | 0.96 | 11
9 | COc1ccccc1-c1cnc(N2CCN(CCCc3c[nH]c4ccc(C#N)cc34)CC2)nc1 [Example 10] | – | – | – | – | – | – | – | – | – | – | – | – | – | 0.84 | 3.4
10 | COc1cc(F)ccc1-c1cnc(N2CCN(CCCc3c[nH]c4ccc(C#N)cc34)CC2)nc1 [Example 16, 3-(3-(4-(5-(4-fluoro-2-methoxyphenyl)pyrimidin-2-yl)piperazin-1-yl)propyl)-1H-indole-5-carbonitrile] | – | – | – | – | – | – | – | – | – | – | – | – | – | 0.87 | 7.1
11 | N#Cc1ccc2[nH]cc(CCCCN3CCN(c4ncc(-c5ccc(Cl)cc5)cn4)CC3)c2c1 [Example 11, 3-(4-(4-(5-(4-chlorophenyl)pyrimidin-2-yl)piperazin-1-yl)butyl)-1H-indole-5-carbonitrile] | – | – | – | – | – | – | – | – | – | – | – | – | – | 1.6 | 13
12 | N#Cc1ccc2[nH]cc(CCCCN3CCN(c4ncc(-c5ccc(F)cc5F)cn4)CC3)c2c1 [Example 13, 3-(4-(4-(5-(2,4-difluorophenyl)pyrimidin-2-yl)piperazin-1-yl)butyl)-1H-indole-5-carbonitrile] | 724 | 643 | 330 | 0.083 | 23.8 | 3.9 | 6 | 1160 | 1070 | 152 | 1 | 4.14 | 66.4 | 1.2 | 1.3
13 | N#Cc1ccc2[nH]cc(CCCCN3CCN(c4ncc(-c5ccc(C(N)=O)cc5)cn4)CC3)c2c1 [Example 5, 4-(2-(4-(4-(5-cyano-1H-indol-3-yl)butyl)piperazin-1-yl)pyrimidin-5-yl)benzamide] | – | – | – | – | – | – | – | – | – | – | – | – | – | 0.79 | 8.42
14 | N#Cc1ccc2[nH]cc(CCCCN3CCN(c4ncc(-c5cccc(C(N)=O)c5)cn4)CC3)c2c1 [Example 1, 3-(2-(4-(4-(5-cyano-1H-indol-3-yl)butyl)piperazin-1-yl)pyrimidin-5-yl)benzamide] | – | – | – | – | – | – | – | – | – | – | – | – | – | 0.86 | 2.87

Reference: patent US10316025B2, “Substituted piperazine compounds and methods of use and use thereof” (SUNSHINE LAKE PHARMA CO., LTD., priority 2015, dated 2019)
